# Data as given in patent US8048915B2, “Biologically active complex” (BioMas Ltd., priority 2001, dated 2011).
# Where “and” joins values, the source holds several entries; their conditions need not be identical. Equal values may be shown once. Read-outs that look alike come from different tables or passages of the source.
# Experiments:
# interleukin-2 (IL-2) = details: single animals
# Procedure: The test animals were Balb-c, male, mice, 6 to 8 weeks of age. […] The animals received the following injections:
# Each of groups a, b, c and d consisted of 21 animals. The animals were sacrificed daily from 24 h to 7 days after injection. On each day, spleen cells from three of the animals from each control group were pooled together and processed by passing the spleen cells through a 60 mesh stainless steel net in a 5 mm Petri dish containing PBS in order to separate the cells. The cells were collected and centrifuged at 1000 rpm for 10 minutes. The supernatant was discarded and the cells were treated for two minutes with 5 ml of hypotonic buffer (0.15M NH4 Cl, 0.01M KHCO3 dissolved in double distilled water, pH 7.2) to kill the erythrocytes. Thereafter, PBS was added to the cells and the cells were centrifuged for 10 minutes at 1000 rpm. The cells were washed twice with PBS and counted in a hemocytometer using trypan blue to test for viability. The cells were brought to a concentration of 10^7 cells/ml using enriched RPMI containing 10% fetal calf serum (Ser Lab, Sussex, England); 5×10^−5M 2-mercaptoethanol and 3% of d-glutamine (Bio Lab Israel); stock solution 2 mM×1000 nonessential amino acids (Bio Lab, Israel); stock solution×100 and sodium pyruvate (Bio Lab, Israel) stock solution 1 mM×100. An additional three animals from each of the experimental groups were sacrificed and each of the spleens was processed separately using the same procedure.
# The cell mixture was divided into two groups:
# Supernatants were collected, centrifuged at 1,600 rpm for 10 minutes and stored at 4° C. until used. […] These supernatants were assayed for CSF activity. Prior to incubation of the cells, samples were removed from culture plates and smears of the cultures were made by cytocentrifugation. Slides were stained with May-Grunwald-Giemsa (1:10) solution and evaluated morphologically. A radioactive thymidine assay was used to determine IL-2 activity. Assay for IL-2 Activity • 1. Supernatants were tested for IL-2 activity by the proliferation of the IL-2 dependent cell line CTLD. The IL-2 assay is based on the growth dependence of these cultured T-cell lines on IL-2. T cells harvested from IL-2 dependent culture, washed and placed back in culture in the absence of IL-2 invariably die within 24 hr. By using tritiated thymidine incorporation (^3H-TdR) as an index of cultured T-cell replication, the IL-2 microassay provides a highly reproducible and quantitative indication of the amount of IL-2 activity in the supernatant prepared hereinabove. • 2. To assay a condition medium for IL-2 activity, a sample containing 5 x 10^4 CTLD cells, 10% fetal calf serum and 50% of supernatant in question, all were suspended in a final volume of 1 ml RPMI. Aliquots of 0.2 ml from each sample were placed in four replicate wells of 96 microwell tissue culture plates (NUNC). Conditioned medium was obtained from cultures of Charles River rat spleen cells stimulated with Con A that contained a known amount of IL-2 as a reference in all assays. • 3. The microwells were incubated for 24 hr at 37° C. after which 1 microcurie/well of ^3H-methylthymidine was added. Cells were then further incubated overnight, harvested with a cell harvester, and counted in a beta scintillator.
# IL-2 [1] = details: 72 hours culture, 50% supernatant on CTLD cells
# Excerpt: Culture supernatants were collected, centrifuged and tested for IL-2 activity by using 50% of the volume of the supernatant assaying their ability to support the proliferation of the IL-2 dependent cell line CTLD.
# [2] = tested on: IL-2 receptors of human mononuclear cells; assay: Induction of IL-2 receptors of human mononuclear cells (proliferation with recombinant IL-2, 3H thymidine uptake); format: cell-based
# Procedure: Human MNC were brought to a concentration of 10^6 cells/ml. RPMI+10% FCS. Aliquots of 0.2 ml. were placed in duplicate wells of microdishes and plates were incubated at 37° C. for 24 hrs. […] Plates were further incubated for 48 hrs and labeled with ^3H thymidine 24 hrs before harvesting. The proliferation was measured by ^3HT uptake as described by Gillis et al, J. Immunol. […] The results are expressed in counts per minute.
# West Nile virus (WNV) [3] = tested on: West Nile virus (WNV)
# Excerpt: WNV is a toga virus of the flavivirus group, a positive single stranded RNA virus, which when injected IP to mice usually kills them within 5-8 days as a result of extensive damage to the central nervous system.
# IL-2 [4] = tested on: IL-2
# West Nile virus (WNV) [5] = tested on: West Nile virus (WNV); remark: listed apart in the source
# Procedure: (§1) All cultures were then infected with 10^4 PFU/plate. After 72 h incubation the supernatants were collected and the virus was titrated against Vera cells.
# mouse macrophages = assay: Survival of mouse macrophage monolayer incubated with complex
# Procedure: as §1
smiles,measurement,setting,value
"Cl[Te]1(Cl)(Cl)OCCO1.N [Example 1, equimolar complex of TeO2 and ethylene glycol, NH4Cl salt]",IL-2 activity,"interleukin-2 (IL-2); 1 μg IP in 0.2 ml DMSO/PBS, day 1",25.919 CPM and 34.326 CPM and 16.718 CPM
same,IL-2 activity,"interleukin-2 (IL-2); 1 μg IP in 0.2 ml DMSO/PBS, day 2",21.398 CPM and 22.050 CPM and 9.338 CPM
same,IL-2 activity,"interleukin-2 (IL-2); 1 μg IP in 0.2 ml DMSO/PBS, day 4",31.999 CPM and 14.226 CPM and 17.228 CPM
same,IL-2 activity,"interleukin-2 (IL-2); 1 μg IP in 0.2 ml DMSO/PBS, day 6",41.261 CPM and 80.314 CPM and 42.485 CPM
same,IL-2 activity,"interleukin-2 (IL-2); 1 μg IP in 0.2 ml DMSO/PBS, day 7",66.854 CPM and 58.094 CPM and 51.268 CPM
same,IL-2 activity,"interleukin-2 (IL-2); 10 μg IP in 0.2 ml DMSO/PBS, day 1",24.335 CPM and 21.193 CPM and 25.381 CPM
same,IL-2 activity,"interleukin-2 (IL-2); 10 μg IP in 0.2 ml DMSO/PBS, day 2",31.901 CPM and 36.390 CPM and 22.066 CPM
same,IL-2 activity,"interleukin-2 (IL-2); 10 μg IP in 0.2 ml DMSO/PBS, day 3",20.316 CPM and 18.288 CPM and 12.126 CPM
same,"IL-2 activity, Counts per minute",IL-2 [1]; 1 ng,"11,000 Counts per minute"
same,"IL-2 activity, Counts per minute",IL-2 [1]; 10 ng,"1,500 Counts per minute"
same,"IL-2 activity, Counts per minute",IL-2 [1]; 1 μg,250 Counts per minute
same,"IL-2 activity, Counts per minute",IL-2 [1]; 100 μg,280 Counts per minute
same,"proliferation, 3HT uptake","[2]; Test A, 1 μg/ml, listed as Ex. 1",28625 counts per minute and 27593 counts per minute
same,"proliferation, 3HT uptake","[2]; Test A, 1 × 10^−3 μg/ml, listed as Ex. 1",3652 counts per minute and 5055 counts per minute
same,"proliferation, 3HT uptake","[2]; Test A, 1 × 10^−4 μg/ml, listed as Ex. 1",3558 counts per minute and 4047 counts per minute
same,"proliferation, 3HT uptake","[2]; Test A, 1 × 10^−5 μg/ml, listed as Ex. 1",2474 counts per minute and 4063 counts per minute
same,"proliferation, 3HT uptake","[2]; Test A, 5 × 10^−1 μg/ml, listed as Ex. 1",120755 counts per minute and 105943 counts per minute
same,"proliferation, 3HT uptake","[2]; Test A, 7 × 10^−1 μg/ml, listed as Ex. 1",164538 counts per minute and 115195 counts per minute
same,"proliferation, 3HT uptake","[2]; Test B, 1 μg/ml",23488 counts per minute
same,"proliferation, 3HT uptake","[2]; Test B, 1 × 10^−2 μg/ml",6057 counts per minute
same,"proliferation, 3HT uptake","[2]; Test B, 1 × 10^−3 μg/ml",5865 counts per minute
same,"proliferation, 3HT uptake","[2]; Test B, 1 × 10^−4 μg/ml",4960 counts per minute
same,"proliferation, 3HT uptake","[2]; Test B, 1 × 10^−5 μg/ml",7155 counts per minute
same,"proliferation, 3HT uptake","[2]; Test B, 5 × 10^−1 μg/ml",66910 counts per minute
same,"proliferation, 3HT uptake","[2]; Test B, 5 × 10^−2 μg/ml",5390 counts per minute
same,"proliferation, 3HT uptake","[2]; Test B, 7 × 10^−1 μg/ml",17620 counts per minute
same,susceptibility of West Nile virus infections in mice,"West Nile virus (WNV) [3]; mouse, in vivo",susceptible
same,# Alive/Total,"West Nile virus (WNV) [3]; mouse, in vivo, ip",3/5
same,fate of the three survivors after day 8,"West Nile virus (WNV) [3]; second experiment, 10^3 IPLD50 virus + complex","Two out of the remaining three survived an additional 8 days, whereas the third remained alive without any manifestations of clinical symptoms"
same,% Survival,"fibrosarcoma cells; 10 μg IP at intervals, 4 days after inoculation with tumor cells",100%
same,% Survival,"fibrosarcoma cells; 10 μg IP at intervals, 9 days after inoculation with tumor cells",100%
same,% Survival,"fibrosarcoma cells; 10 μg IP at intervals, 23 days after inoculation with tumor cells",100%
same,% Survival,"fibrosarcoma cells; 10 μg IP at intervals, 30 days after inoculation with tumor cells",100%
same,% Survival,"fibrosarcoma cells; 10 μg IP at intervals, 37 days after inoculation with tumor cells",100%
same,% Survival,"fibrosarcoma cells; 39 days after inoculation with tumor cells, start of increased dosage regimen",100%
same,% Survival,"fibrosarcoma cells; 41 days after inoculation, increased dosage regimen from day 39",100%
same,% Survival,"fibrosarcoma cells; 43 days after inoculation, increased dosage regimen from day 39",100%
same,% Survival,"fibrosarcoma cells; 46 days after inoculation, increased dosage regimen from day 39",80%
same,% Survival,"fibrosarcoma cells; 48 days after inoculation, increased dosage regimen from day 39",80%
same,% Survival,"fibrosarcoma cells; 50 days after inoculation, increased dosage regimen from day 39",80%
same,% Survival,"fibrosarcoma cells; 53 days after inoculation, increased dosage regimen from day 39",60%
same,% Survival,"fibrosarcoma cells; 60 days after inoculation, increased dosage regimen from day 39",40%
same,% Survival,"fibrosarcoma cells; 67 days after inoculation, increased dosage regimen from day 39",20%
same,% Survival,"fibrosarcoma cells; 68 days after inoculation, increased dosage regimen from day 39",0%
same,mortality,"fibrosarcoma cells; group (b), until just after the increased dosage regimen (day 39)",^1Day 39 marked the start of an increased dosage regimen to determine the toxicity of the complex of Example 1. The mortality results for group (b) were 0% until just after the increased dosage regimen.
same,IL-2 production,"IL-2 [4]; NORMAL subjects, PHA +, 5 μg 0.2 ml PBS",30.4 CPM × 10^−3 and 38.9 CPM × 10^−3 and 36.4 CPM × 10^−3
same,IL-2 production,"IL-2 [4]; NORMAL subjects, PHA +, 1:50 PBS dilution of 5 μg/0.2 ml",38.9 CPM × 10^−3 and 53.5 CPM × 10^−3 and 48.2 CPM × 10^−3
same,IL-2 production,"IL-2 [4]; NORMAL subjects, PHA +, 1:100 PBS dilution of 5 μg/0.2 ml",54.2 CPM × 10^−3 and 44.8 CPM × 10^−3 and 38.6 CPM × 10^−3
same,IL-2 production,"IL-2 [4]; NORMAL subjects, PHA +, 1:200 PBS dilution of 5 μg/0.2 ml",49.8 CPM × 10^−3 and 38.3 CPM × 10^−3 and 38.6 CPM × 10^−3
same,IL-2 production,"IL-2 [4]; NORMAL subjects, PHA −, 5 μg 0.2 ml PBS",2.1 CPM × 10^−3 and 2.3** CPM × 10^−3
same,IL-2 production,"IL-2 [4]; NORMAL subjects, PHA −, 1:50 PBS dilution of 5 μg/0.2 ml",52.2 CPM × 10^−3 and 50.8 CPM × 10^−3 and 43.6 CPM × 10^−3
same,IL-2 production,"IL-2 [4]; NORMAL subjects, PHA −, 1:100 PBS dilution of 5 μg/0.2 ml",50.3 CPM × 10^−3 and 46.1 CPM × 10^−3 and 38.4 CPM × 10^−3
same,IL-2 production,"IL-2 [4]; NORMAL subjects, PHA −, 1:200 PBS dilution of 5 μg/0.2 ml",47.1 CPM × 10^−3 and 31.3 CPM × 10^−3 and 30.1 CPM × 10^−3
same,IL-2 production,"IL-2 [4]; SLE patients, PHA +, 5 μg 0.2 ml PBS",6.3 CPM × 10^−3 and 8.2 CPM × 10^−3 and 4.1 CPM × 10^−3
same,IL-2 production,"IL-2 [4]; SLE patients, PHA +, 1:50 PBS dilution of 5 μg/0.2 ml",24.2 CPM × 10^−3 and 28.1 CPM × 10^−3 and 23.8 CPM × 10^−3
same,IL-2 production,"IL-2 [4]; SLE patients, PHA +, 1:100 PBS dilution of 5 μg/0.2 ml",19.7 CPM × 10^−3 and 24.0 CPM × 10^−3 and 20.2 CPM × 10^−3
same,IL-2 production,"IL-2 [4]; SLE patients, PHA +, 1:200 PBS dilution of 5 μg/0.2 ml",15.4 CPM × 10^−3 and 18.6 CPM × 10^−3 and 16.8 CPM × 10^−3
same,IL-2 production,"IL-2 [4]; SLE patients, PHA −, 5 μg 0.2 ml PBS",2.0 CPM × 10^−3 and 2.4 CPM × 10^−3
same,IL-2 production,"IL-2 [4]; SLE patients, PHA −, 1:100 PBS dilution of 5 μg/0.2 ml",32.1 CPM × 10^−3 and 35.1 CPM × 10^−3 and 18.1 CPM × 10^−3
same,reduction in virus yield,West Nile virus (WNV) [5],ten
same,reduction of virus yield,West Nile virus (WNV) [5],40 fold
same,state of macrophages after 24 h incubation,mouse macrophages; 1 μg and 0.1 μg (others),remained unaffected
same,state of macrophages after 24 h incubation,mouse macrophages; 5 μg,died
